Experiments:
Neutrophil elastase [1] = target: T1, Neutrophil elastase (Homo sapiens, UniProt P08246); assay: Inhibition of human neutrophil elastase using MeOSuc-Ala-Ala-Pro-Val-AMC as substrate after 15 mins by fluorescence assay
T1 sequence (P08246 whole entry): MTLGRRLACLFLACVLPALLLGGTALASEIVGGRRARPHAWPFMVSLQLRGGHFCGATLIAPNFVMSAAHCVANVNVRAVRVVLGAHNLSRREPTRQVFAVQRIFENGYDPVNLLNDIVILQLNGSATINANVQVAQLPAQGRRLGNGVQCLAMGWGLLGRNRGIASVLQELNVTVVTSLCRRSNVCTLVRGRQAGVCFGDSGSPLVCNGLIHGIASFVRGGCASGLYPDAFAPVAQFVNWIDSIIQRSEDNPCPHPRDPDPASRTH

Neutrophil elastase [2] = target: T1, Neutrophil elastase; assay: Inhibition of neutrophil elastase in human plasma using MeOSuc-Ala-Ala-Pro-Val-AMC as substrate by fluorescence assay

SMILES	IC50 (Neutrophil elastase [1]) [nM]	EC50 (Neutrophil elastase [2]) [nM]
N#Cc1ccc(C2C3=C(CCC3=O)N(c3cccc(C(F)(F)F)c3)C(=O)N2CC(=O)N2CCC2)cc1 (centres undefined)	3.7	4
CS(=O)(=O)c1cc(C#N)ccc1C1C2=C(CCC2=O)N(c2cccc(C(F)F)c2)C(=O)N1C(=O)N1CC1 (centres undefined)	< 1	< 1
